The values that follow come from publication PMC12429696, “The Neurotropic Activity of Novel Dermorphin Analogs Active in Systemic and Noninvasive Administration” (International Journal of Molecular Sciences, 2025).

Data set [1] deals with isolated preparations of guinea pig ileal smooth muscle. Nature of the data set: Opioid activity on electrically stimulated isolated guinea pig ileum (GPI). The class given is cell-based. As to conditions: inhibition of electrically stimulated contractions of GPI segment, Krebs solution 34 °C, 10^−9 to 10^−6 M, tests in duplicate. An excerpt:
Dermorphin analogs have been tested using the standard guinea pig ileum (GPI) model, The GPI is rich in µ-opioid receptors. Ten peptides were suppressed via electrical stimulation contractions of segment GPI in the studied concentration range (10^−9 to 10^−6 M) (Table 1).
The opioid receptor antagonist naloxone (10^−6 M) prevented or weakened the action of the compounds under investigation, confirming the opioid mechanism of their action. […] Thus, new dermorphin analogs can be agonists of µ-type opioid receptors. However, this needs to be verified using molecular modeling methods in further research. Attila M. et al. (1993) investigated the potential binding of 16 dermorphin analogs to µ and δ opioid receptors in brain cells.
The peripheral opioid activity of the peptides was assessed according to known methodology. A segment of guinea pig ileum (approximately 1 cm long) was placed into a 10 mL organ bath containing Krebs solution at 34 °C. Single pulses stimulated the segment of the ileum (1 g) with a duration of 1 ms and a frequency of 0.1 Hz at 80 V. Contractions were recorded in isometric mode using a K30 sensor (Hugo Sachs Elektronic KG, March, Germany).
All tests for each molecule were performed in duplicate. Based on the data obtained, dose-effect curves were plotted, and the IC50 index was determined as the concentration of the substance that causes 50% of the maximal inhibitory effect.

Data set [2] concerns mice. Nature of the data set: Tail-flick test (radiant heat) in mice. Format: in vivo. As to conditions: 50 mg/kg; for analgesic action in tail-flick test: 30 and 60 min after administration. An excerpt: (§1) Two tests, “tail-flick” and “hot plate,” were used to evaluate the analgesic action of peptides administered intraperitoneally and intra-gastrically.
The pain stimulus was applied locally to the tail as radiant heat using a Tail Flick Analgesia Meter (Hugo Sachs Elektronik, Germany). A tail-flick latent period of 6 s was considered the maximum time for applying the stimulus (Equation (1): tmax—6 s, maximal duration of pain stimulus).
(§2) The control groups consisted of mice injected with solvent. The tested substances were administered to the animals intraperitoneally and intragastrically in a volume of 0.1 mL of saline per 10 g of body weight. The pain response threshold was measured before and 30 and 60 min after administration.
(§3) In both tests, the final indicator of analgesic action was defined as a 50% or more significant effect on the number of animals in each experimental group, expressed as a percentage of the total number of animals in that group. […]

Data set [3] relates to mice. The data set is described as follows: Hot plate test in mice. Format: in vivo. As to conditions: 50 mg/kg, 30 and 60 min after administration. Here is the method:
as §1, §2
The “hot plate” test evaluates the pain reaction to thermal irritation of the mouse paw. The Hot Plate Model 7280 (Ugo Basile S.R.L., Gemonio, Italy) analgesimeter was used for this test. The maximal duration of the pain stimulus (thermal irritation) was set at 60 s.
as §3
On the technique in general: Hot-plate and tail-flick tests time the reaction to a heat stimulus.

The subject of data set [4] is rats. The data set is described as follows: Water immersion tail-flick test in rats. Format: in vivo, Wistar rats. As to conditions: for duration of analgesic effect: intraperitoneal, 5 mg/kg, water tail-flick 56 °C.
The test system of data set [5] is rats. The data set is described as follows: Open field test in rats with intranasal administration. The class given is in vivo, Wistar rats. As to conditions: n = 7, open field 2 min. As for the experimental part:
The experiments were conducted in an automated “open-field” chamber that registered and processed computer data. They were conducted in two replicates on 64 male Wistar rats weighing 240–260 g. The “open-field” is a round arena with a diameter of 80 cm, lined with three concentric circles and eight diameters. During the experiment, the rat was placed in the center of the arena. Motor activity (measured as the number of segments passed), the number of departures from the arena wall, vertical activity (the number of rises on the hind legs), and the number of touches of the muzzle with the paws (washing) were visually assessed for two minutes. A 500-watt household electric bell and a 15-watt red lamp were placed 80 cm above the arena. The study was conducted in silence and under the light of the red lamp.
Animals were divided into groups: untrained intact animals and trained experimental animals. All animals were divided into five groups: • In the intact group, animals without training were injected with 0.05 mL of physiological solution one minute before being placed in the “open field.” (n = 33). • The control group consisted of animals adapted after a 5-day administration of 0.5 mL of saline (n = 10). • Single drug action at a 15 μg/kg dose was administered to adapted animals (n = 7). • Adapted animals (n = 7) received a 50 μg/kg dose of a single drug action. • Single drug action at a 150 μg/kg dose was administered to adapted animals (n = 7).

Another data set deals with µ-opioid receptors. Details: method as in PMID 3033543. As to conditions: cited from earlier work.
The next data set relates to δ-opioid receptors. Details: method as in PMID 3033543. As to conditions: rat brain; cited from earlier work.
The subject of the next data set is κ receptors. More on the design: method as in PMID 3033543. As to conditions: rat brain; cited from earlier work.
Setting [6] is: intracerebroventricular, 1.0 μg/kg.

Entries after “also recorded” stand apart in the source; their conditions may differ. Square brackets hold non-standard residues; d marks the D form. Ends that are not written are not given here.

In the case of “Cyclo-[L-Lys(H-Tyr-D-Ala-Phe-D-Ala)-L-Glu(OH)] (head to tail) [D6]”, the “Index IC50” value in data set [1] stood at 570 nM.
Regarding “Cyclo-[L-Lys(H-Tyr-D-Ala-Phe-D-Ala-Tyr-Pro-Ser)-L-Glu(L-Trp-OH)] (head to tail) [D4]”, the “Index IC50” value in data set [1] amounted to 11 nM. In addition, the “analgesic action in tail-flick test” value with mice [2] (intragastric) is “active after 30 and 60 min”; with mice [2] (intraperitoneal), “high analgesic activity”. The results for the “analgesic action in hot plate test” value in the data set with mice [3] (intragastric) and in the data set with mice [3] (intraperitoneal) were “no significant analgesic effect” and “moderately active; also recorded: active as tramadol”, respectively.
In the case of “H-Y[dA]F[dA]YPS-NHMe (SMILES CNC(=O)[C@H](CO)NC(=O)[C@@H]1CCCN1C(=O)[C@H](Cc1ccc(O)cc1)NC(=O)[C@@H](C)NC(=O)[C@H](Cc1ccccc1)NC(=O)[C@@H](C)NC(=O)[C@@H](N)Cc1ccc(O)cc1) [D2]”, the “Index IC50” value in data set [1] was determined as 9.5 nM. Moreover, in the data set with rats [4] (setting [6]), the analgesic effect entry was “potent analgesia”; the observed side effects result is “severe muscle tension, and numbness”. For the same compound, in the data set with rats [4] (intracerebroventricular, 2.5 μg/kg), the observed side effects result was “complete immobility and catatonic effects”. Moreover, the “analgesic effect (A)” value with rats [4] (intracerebroventricular, 2.5 μg/kg, n = 7) is 100%. In addition, in the data set on rats [4] (intranasal, 0.5 µg/kg), the observed side effects entry was “short-term state of stupor”. For the same compound, in the data set with rats [4] (intranasal, 1.0 µg/kg), the analgesic effect result was “maximum long-lasting analgesia” and the observed side effects entry is given as “complete stupor”. Besides, the “duration of analgesic effect” value in the data set with rats [4] is listed as “up to 5 h”. In the data set with rats [5] (15 µg/kg), this compound yielded a Defecation of 0.92 ± 0.26, a Dive of 6.17 ± 1.63, a Grooming of 1.58 ± 0.42 and a Path of 23.83 ± 7.16. In the data set on rats [5] (15 µg/kg), this compound gave a Stand of 8.83 ± 3.03 and a Urination of 0.25 ± 0.13. In the data set on rats [5] (50 µg/kg), this compound had a Defecation of 1.10 ± 0.18, a Dive of 3.40 ± 0.76, a Grooming of 0.90 ± 0.46 and a Path of 21.80 ± 6.16. In the data set on rats [5] (50 µg/kg), this compound registered a Stand of 4.50 ± 1.35 and a Urination of 0.20 ± 0.13. Besides, in the data set with rats [5] (150 µg/kg), the Defecation came out at 0.60 ± 0.22, the Dive was determined as 2.90 ± 0.99, the Grooming turned out to be 1.00 ± 0.39 and the Path was found to be 14.80 ± 3.80. For the same compound, in the data set with rats [5] (150 µg/kg), the Stand is given as 4.70 ± 1.45 and the Urination stood at 0.10 ± 0.10. Moreover, in the data set on mice [2] (intragastric), the “analgesic action in tail-flick test” value is reported as “active in the “tail-flick” test only 30 min after administration”. Further, the “analgesic action in hot plate test” value with mice [3] (intragastric) is given as “no significant analgesic effect”. In the data set with mice [3] (intraperitoneal), the “analgesic action in hot plate test” value is “significant activity only at 30 min; also recorded: active only for 30 min”.
For “H-Y[dA]F[dA]YPS-OH (SMILES C[C@@H](NC(=O)[C@H](Cc1ccccc1)NC(=O)[C@@H](C)NC(=O)[C@@H](N)Cc1ccc(O)cc1)C(=O)N[C@@H](Cc1ccc(O)cc1)C(=O)N1CCC[C@H]1C(=O)N[C@@H](CO)C(=O)O) [D5]”, in data set [1], the “Index IC50” value came to 760 nM.
Take “H-Y[dA]F[dA]-OH (SMILES C[C@@H](NC(=O)[C@H](Cc1ccccc1)NC(=O)[C@@H](C)NC(=O)[C@@H](N)Cc1ccc(O)cc1)C(=O)O) [D10, reference compound]”: the “Index IC50” value in data set [1] was 1000 nM.
“H-RY[dA]F[dA]-OH (SMILES C[C@@H](NC(=O)[C@H](Cc1ccccc1)NC(=O)[C@@H](C)NC(=O)[C@H](Cc1ccc(O)cc1)NC(=O)[C@@H](N)CCCNC(=N)N)C(=O)O) [D9]”: the “Index IC50” value in data set [1] was found to be 1000 nM.
On to “Cyclo-[L-Lys(H-Tyr-D-Ala-Phe-D-Ala-Tyr-Pro-Ser)-L-Glu(L-Trp-NH2)] (head to tail) [D3]”, for which the “Index IC50” value in data set [1] is 33 nM. The “analgesic action in tail-flick test” value with mice [2] (intragastric) was “active after 30 and 60 min”; in the data set on mice [2] (intraperitoneal), “high analgesic activity”. In the data set with mice [2] (intraperitoneal), the “duration of activity in tail-flick test” value was 60 min. Besides, the “analgesic action in hot plate test” value in the data set with mice [3] (intragastric) is listed as “no significant analgesic effect”; in the data set on mice [3] (intraperitoneal), “highest activity for 60 min; also recorded: active as tramadol”.
Consider “RY[dA]FG-OH (N-terminus assumed; SMILES C[C@@H](NC(=O)[C@H](Cc1ccc(O)cc1)NC(=O)[C@@H](N)CCCNC(=N)N)C(=O)N[C@@H](Cc1ccccc1)C(=O)NCC(=O)O) [D8]”, for which the “Index IC50” value in data set [1] is 3000 nM.
As for “Cyclo-[L-Lys(H-Tyr-D-Ala-Phe-D-Ala)-L-Glu-(L-TrpOMe)] (head to tail) [D7]”, the “Index IC50” value in data set [1] turned out to be 2000 nM.
Take `COc1cccc(C2(O)CCCCC2CN(C)C)c1` (stereo not shown) [tramadol, reference compound]: in the data set on mice [2] (intragastric), the “analgesic action in tail-flick test” value was “active”. In addition, the “analgesic action in hot plate test” value with mice [3] (intragastric) is “no significant analgesic effect”.
With “H-Tyr-D-Ala-Phe-Gly-Tyr-Pro-Ser-NH2 [D1, reference compound]”, the “Index IC50” value in data set [1] was found to be 2.5 nM. Also, the “duration of analgesic effect” value in the data set on rats [4] was “approximately 1 h”. The “analgesic action in tail-flick test” value with mice [2] (intragastric) is on record as “did not exhibit analgesic action”. In addition, the “duration of activity in tail-flick test” value in the data set on mice [2] (intraperitoneal) is recorded as 60 min. For the same compound, the “analgesic action in hot plate test” value in the data set on mice [3] (intragastric) is on record as “did not exhibit analgesic action”; in the data set with mice [3] (intraperitoneal), “active as tramadol”. Moreover, the “affinity for µ-opioid receptors” value in the data set on µ-opioid receptors is listed as “very high affinity”. The “affinity for δ-opioid receptors” value in the data set on δ-opioid receptors is “low affinity”. Besides, in the data set with κ receptors, the “affinity for κ receptors” value is given as “low affinity”.
